{
  "source": "patent US12539336B2",
  "about": "“Antibody, linkers, payload, conjugates and applications thereof” (GeneQuantum Healthcare (Suzhou) Co., Ltd., priority 2022, dated 2026)",
  "key": {"[1]": {"tested_on": "Trop2-positive cells BxPC-3 and Trop2-negative cells HepG2", "assay": "Bystander killing in BxPC-3/HepG2 co-culture assay (BxPC-3:HepG2=4:1)", "format": "cell-based, human", "settings": "effect example 1.1, conclusion", "procedure": "(§1) A negative control group was set: 3 mL of 45% RPMI-1640+45% DMEM+10% FBS medium was added to each well. After the treatment, the cells were moved to the incubator and incubated for 96 h. After the incubation, cells were digested, and washed once with 1×PBS, then transferred to a flow tube, and centrifuged at 2000 rpm for 3 min. The supernatant was then discarded, and the cell amount and cell viability were detected. […] The cells were washed with 1×PBS, the supernatant was discarded after centrifugation, 200 μL of 5 μg/mL human IgG Fc antibody was added, and the resulting cells were continued to incubate at 4° C. for 30 min after mixing. Finally, the cells were washed with 1×PBS, the supernatant was discarded after centrifugation, and the cells were resuspended in PBS, detected by flow cytometry and analyzed by FlowJo software."}, "[2]": {"tested_on": "Trop2-positive cells BxPC-3 and Trop2-negative HepG2 cells", "assay": "Bystander killing in BxPC-3/HepG2 co-culture assay (BxPC-3:HepG2=2:1)", "format": "cell-based, human", "settings": "effect example 1.3, conclusion", "procedure": "as §1"}},
  "data": [
    {"substance": "DS1062a", "values": [
      {"measurement": "bystander killing effect", "setting": "[1]", "result": "had bystander killing effects"},
      {"measurement": "bystander killing effect", "setting": "[2]", "result": "had bystander killing effects"}
    ]}
  ]
}
